{"source": "PubChem BioAssay AID1963979", "about": "(Molecular Pharmacology Branch, DTP, NCI, 2024);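 also: spheroids exposed to agents for seven days before readout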", "tested_on": "361931-004-R-J1-PDC multicell spheroid viability", "test": "Anticancer human tumor 361931-004-R-J1-PDC patient-derived colon adenocarcinoma cell line growth inhibition [PI3K]", "conditions": "for IC50: curve of first compound; for viability, T/C: stronger effect = lower value", "description": "Combinatorial screen of targeted agents with the PI3K inhibitors inavolisib, alpelisib, duvelisib, and copanlisib in multi-cell type tumor spheroids\nA high-throughput screen of multi-cell type tumor spheroids was designed to identify active combinations of targeted small molecules and PI3K pathway inhibitors. Complex spheroids include a stromal component modeled by human endothelial cells (HUVEC) and fibroblasts modeled by human mesenchymal stem cells (MSCs). The concentration ranges selected for each drug and investigational agent were based upon clinically achievable concentrations if the clinical Cmax of the agent was known.\nCompounds. The drugs and investigational agents: inavolisib (NSC800729), alpelisib (NSC765974), duvelisib (NSC772469), copanlisib (NSC816437), ipatasertib (NSC767898), afuresertib (NSC778305), talazoparib (NSC767125), sapanisertib (NSC764658), selumetinib (NSC741078), tovorafenib (DAY101, NSC766906), vemurafenib (NSC761431), ravoxertinib (NSC781343), sotorasib (NSC818433), MRTX1133 (NSC 836407), abemaciclib (NSC 768073), palbociclib (NSC758247), venetoclax (NSC 766270), SY5609 (NSC837396), enzalutamide (NSC755605), and darolutamide (NSC825331), were obtained from the National Cancer Institute (NCI) Developmental Therapeutics Program Chemical Repository. The FDA-approved anticancer drug set is available from the NCI Developmental Therapeutics Program. […] The stock solutions were prepared in dimethyl sulfoxide (DMSO, Sigma-Aldrich, St. Louis, MO, cat. D2650) at 800-fold the tested concentration and stored at -70 degrees C prior to their use. All drugs and investigational agents were tested over a range starting from a high concentration at or near the clinical Cmax and decreasing in half-log increments. If the clinical Cmax for an agent had not been determined, the highest concentration tested was 10 microM.\nCell Culture. All cells were maintained in an incubator at 37 degrees C and 5% CO2 with 95% humidity. The PDC lines were cultured according to standard operating procedures established by the NCI PDMR (https://pdmr.cancer.gov/sops/default.htm). All PDCs were thawed and cultured in Matrigel-coated flasks prepared with a working solution of 1X Ham's F-12 nutrient mix, without supplementation (Invitrogen, Waltham, MA, cat. 11765054), 100 U/mL penicillin-streptomycin (Invitrogen, cat. 15140122), and 2.5% Matrigel (Corning Inc., Corning, NY, cat. 354248) for the first three passages. The 354836-022-R-J1-PDC, 475296-252-R-J1-PDC, and 997726-040-R-J2-PDC lines were cultured in 6A media, which includes advanced DMEM/F-12 (Thermo Fisher Scientific, cat. 12634028), 10 mM HEPES (Thermo Fisher Scientific, cat. 15630080), 1X GlutaMAX supplement (Thermo Fisher Scientific, cat. 35050061), 0.1 mg/mL primocin (InvivoGen, San Diego, CA, cat. ant-pm-2), 10% defined fetal bovine serum, heat inactivated (HyClone Laboratories Inc., Logan, UT, cat. SH30070.03HI), 50% L-WRN conditioned media (ATCC, cat. CRL-3276), 1.25 mM N-Acetyl-L-cysteine (Sigma-Aldrich, cat. A9165), 10 mM nicotinamide (Sigma-Aldrich, cat. N0636), 1X B-27 supplement (Thermo Fisher Scientific, cat. 17504044), 1X N-2 supplement (Thermo Fisher Scientific, cat. 17502048), and 10 microM Y-27632 dihydrochloride (Tocris Bioscience, Bristol, United Kingdom, cat. 1254). The 624824-186-R-J2-PDC line was cultured in 6C/Colon 1B media, which includes all 6A media components plus 50 ng/mL human EGF recombinant protein (Thermo Fisher Scientific, cat. PHG0311). […]"}
{"smiles": "Cn1ncnc1[C@H]1c2n[nH]c(=O)c3cc(F)cc(c23)N[C@@H]1c1ccc(F)cc1", "note": "+ Cc1nc(NC(=O)N2CCCC2C(N)=O)sc1-c1ccnc(C(C)(C)C(F)(F)F)c1", "values": [{"measurement": "IC50", "setting": "second compound 0.0316 µM", "value": "> 100", "unit": "nM"}, {"measurement": "IC50", "setting": "second compound 0.1 µM", "value": "> 100", "unit": "nM"}, {"measurement": "IC50", "setting": "second compound 0.316 µM", "value": "> 100", "unit": "nM"}, {"measurement": "IC50", "setting": "second compound 1 µM", "value": "> 100", "unit": "nM"}, {"measurement": "IC50", "setting": "second compound 3.16 µM", "value": "> 100", "unit": "nM"}, {"measurement": "IC50", "setting": "second compound 10 µM", "value": 48.4, "unit": "nM"}, {"measurement": "viability, T/C", "setting": "second compound 0.0316 µM, first compound 0.000316 µM", "value": 98, "unit": "%"}, {"measurement": "viability, T/C", "setting": "second compound 0.0316 µM, first compound 0.001 µM", "value": 93.1, "unit": "%"}, {"measurement": "viability, T/C", "setting": "second compound 0.0316 µM, first compound 0.00316 µM", "value": 97.3, "unit": "%"}, {"measurement": "viability, T/C", "setting": "second compound 0.0316 µM, first compound 0.01 µM", "value": 93, "unit": "%"}, {"measurement": "viability, T/C", "setting": "second compound 0.0316 µM, first compound 0.0316 µM", "value": 79.8, "unit": "%"}, {"measurement": "viability, T/C", "setting": "second compound 0.0316 µM, first compound 0.1 µM", "value": 85.3, "unit": "%"}, {"measurement": "viability, T/C", "setting": "second compound 0.1 µM, first compound 0.000316 µM", "value": 109, "unit": "%"}, {"measurement": "viability, T/C", "setting": "second compound 0.1 µM, first compound 0.001 µM", "value": 93.6, "unit": "%"}, {"measurement": "viability, T/C", "setting": "second compound 0.1 µM, first compound 0.00316 µM", "value": 94.5, "unit": "%"}, {"measurement": "viability, T/C", "setting": "second compound 0.1 µM, first compound 0.01 µM", "value": 93.2, "unit": "%"}, {"measurement": "viability, T/C", "setting": "second compound 0.1 µM, first compound 0.0316 µM", "value": 86.5, "unit": "%"}, {"measurement": "viability, T/C", "setting": "second compound 0.1 µM, first compound 0.1 µM", "value": 76.8, "unit": "%"}, {"measurement": "viability, T/C", "setting": "second compound 0.316 µM, first compound 0.000316 µM", "value": 98.2, "unit": "%"}, {"measurement": "viability, T/C", "setting": "second compound 0.316 µM, first compound 0.001 µM", "value": 86.1, "unit": "%"}, {"measurement": "viability, T/C", "setting": "second compound 0.316 µM, first compound 0.00316 µM", "value": 81.7, "unit": "%"}, {"measurement": "viability, T/C", "setting": "second compound 0.316 µM, first compound 0.01 µM", "value": 81.8, "unit": "%"}, {"measurement": "viability, T/C", "setting": "second compound 0.316 µM, first compound 0.0316 µM", "value": 83.5, "unit": "%"}, {"measurement": "viability, T/C", "setting": "second compound 0.316 µM, first compound 0.1 µM", "value": 80.8, "unit": "%"}, {"measurement": "viability, T/C", "setting": "second compound 1 µM, first compound 0.000316 µM", "value": 87.3, "unit": "%"}, {"measurement": "viability, T/C", "setting": "second compound 1 µM, first compound 0.001 µM", "value": 73.4, "unit": "%"}, {"measurement": "viability, T/C", "setting": "second compound 1 µM, first compound 0.00316 µM", "value": 84.5, "unit": "%"}, {"measurement": "viability, T/C", "setting": "second compound 1 µM, first compound 0.01 µM", "value": 79.4, "unit": "%"}, {"measurement": "viability, T/C", "setting": "second compound 1 µM, first compound 0.0316 µM", "value": 90.1, "unit": "%"}, {"measurement": "viability, T/C", "setting": "second compound 1 µM, first compound 0.1 µM", "value": 70.3, "unit": "%"}, {"measurement": "viability, T/C", "setting": "second compound 3.16 µM, first compound 0.000316 µM", "value": 70.4, "unit": "%"}, {"measurement": "viability, T/C", "setting": "second compound 3.16 µM, first compound 0.001 µM", "value": 81.8, "unit": "%"}, {"measurement": "viability, T/C", "setting": "second compound 3.16 µM, first compound 0.00316 µM", "value": 77.4, "unit": "%"}, {"measurement": "viability, T/C", "setting": "second compound 3.16 µM, first compound 0.01 µM", "value": 66.9, "unit": "%"}, {"measurement": "viability, T/C", "setting": "second compound 3.16 µM, first compound 0.0316 µM", "value": 72.6, "unit": "%"}, {"measurement": "viability, T/C", "setting": "second compound 3.16 µM, first compound 0.1 µM", "value": 62.2, "unit": "%"}, {"measurement": "viability, T/C", "setting": "second compound 10 µM, first compound 0.000316 µM", "value": 62.2, "unit": "%"}, {"measurement": "viability, T/C", "setting": "second compound 10 µM, first compound 0.001 µM", "value": 54.5, "unit": "%"}, {"measurement": "viability, T/C", "setting": "second compound 10 µM, first compound 0.00316 µM", "value": 54, "unit": "%"}, {"measurement": "viability, T/C", "setting": "second compound 10 µM, first compound 0.01 µM", "value": 56.6, "unit": "%"}, {"measurement": "viability, T/C", "setting": "second compound 10 µM, first compound 0.0316 µM", "value": 47.9, "unit": "%"}, {"measurement": "viability, T/C", "setting": "second compound 10 µM, first compound 0.1 µM", "value": 49.2, "unit": "%"}]}
